This is an account of results in ChEMBL document CHEMBL1152306, “Characterization of novel furan compounds on the basis of their radical scavenging activity and cytoprotective effects against glutamate- and lipopolysaccharide-induced insults” (Bioorg Med Chem, 2008).

Series [1] concerns the target T1, Polyunsaturated fatty acid 5-lipoxygenase (Homo sapiens, UniProt P09917).
T1 sequence (P09917 whole entry): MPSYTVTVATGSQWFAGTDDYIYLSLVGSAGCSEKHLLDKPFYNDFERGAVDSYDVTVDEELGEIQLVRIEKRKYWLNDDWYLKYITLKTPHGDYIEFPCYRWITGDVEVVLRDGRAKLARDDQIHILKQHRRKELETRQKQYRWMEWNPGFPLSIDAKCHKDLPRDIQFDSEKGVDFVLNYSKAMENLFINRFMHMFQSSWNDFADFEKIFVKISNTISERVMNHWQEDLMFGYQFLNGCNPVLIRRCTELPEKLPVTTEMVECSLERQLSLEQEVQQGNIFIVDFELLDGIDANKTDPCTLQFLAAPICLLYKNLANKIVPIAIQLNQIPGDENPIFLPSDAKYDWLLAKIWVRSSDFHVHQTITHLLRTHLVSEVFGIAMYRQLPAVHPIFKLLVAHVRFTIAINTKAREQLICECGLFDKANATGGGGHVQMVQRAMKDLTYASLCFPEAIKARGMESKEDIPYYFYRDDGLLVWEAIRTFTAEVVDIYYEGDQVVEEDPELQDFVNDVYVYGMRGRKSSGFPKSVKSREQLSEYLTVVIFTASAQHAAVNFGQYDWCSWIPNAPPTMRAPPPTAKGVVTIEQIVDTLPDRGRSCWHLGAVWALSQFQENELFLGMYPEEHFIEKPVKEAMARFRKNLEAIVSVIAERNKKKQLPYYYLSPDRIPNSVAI
The experiment in a line: Inhibition of 5LOX.

Series [2] can be described thus: Radical scavenging activity assessed as relative reactivity against beta-carotene in 2,2-azobis[2-(2-imidazolin-2-yl)-propane]dihydrochloride solution. The series is classed as physicochemical.
Series [3] in a line: Radical scavenging activity assessed as relative reactivity against beta-carotene in MeO-AMVN solution. It counts as physicochemical.
Series [4] concerns Cerebral cortex neuron. The experiment in a line: Neuroprotective activity against glutamate-induced neuronal cell death in Sprague-Dawley rat primary cortical neuron at 1 uM pretreated for 24 hrs prior to glutamate challenge measured after 24 hrs by MTT assay. The series is classed as functional, cell-based. (In general: Tetrazolium dyes change colour on reduction, which living cells bring about.)

The test system of series [5] is PC-12. The experiment in a line: Cytoprotective activity against LPS-induced cell death in rat PC12 cells at 1 to 50 uM pretreated for 24 hrs prior to LPS challenge measured after 24 hrs by MTT assay. It counts as functional, cell-based.
Series [6] deals with PC-12. The experiment in a line: Cytoprotective activity against 13(S)-HpODE-induced cell death in rat PC12 cells pretreated for 24 hrs prior to 13(S)-HpODE challenge measured after 24 hrs by MTT assay. It counts as functional, cell-based.
The subject of series [7] is Cerebral cortex neuron. Nature of the series: Neuroprotective activity against glutamate-induced neuronal cell death in Sprague-Dawley rat primary cortical neuron at 1 uM administered simultaneously with glutamate after 24 hrs by MTT assay. The series is classed as functional, cell-based.
Series [8] is described as follows: Radical scavenging activity assessed as relative reactivity against beta-carotene in benzene solution. It counts as physicochemical.
Series [9] addresses Prostaglandin G/H synthase 1 (Homo sapiens, UniProt P23219). The experiment in a line: Inhibition of COX1.
A further series deals with THP-1. The experiment in a line: Cytoprotective activity against LPS-induced cell death in human THP1 cells at 10 uM pretreated for 24 hrs prior to LPS challenge measured after 24 hrs by MTT assay. It counts as functional, cell-based.
The nature of series [10]: Radical scavenging activity assessed as suppression of MeO-AMVN-induced beta-carotene oxidation in benzene solution. It counts as physicochemical.
A short description of series [11]: Radical scavenging activity assessed as rate constant. It counts as physicochemical.
The target of series [12] is T2, Prostaglandin G/H synthase 2 (Homo sapiens, UniProt P35354).
T2 sequence (P35354 whole entry): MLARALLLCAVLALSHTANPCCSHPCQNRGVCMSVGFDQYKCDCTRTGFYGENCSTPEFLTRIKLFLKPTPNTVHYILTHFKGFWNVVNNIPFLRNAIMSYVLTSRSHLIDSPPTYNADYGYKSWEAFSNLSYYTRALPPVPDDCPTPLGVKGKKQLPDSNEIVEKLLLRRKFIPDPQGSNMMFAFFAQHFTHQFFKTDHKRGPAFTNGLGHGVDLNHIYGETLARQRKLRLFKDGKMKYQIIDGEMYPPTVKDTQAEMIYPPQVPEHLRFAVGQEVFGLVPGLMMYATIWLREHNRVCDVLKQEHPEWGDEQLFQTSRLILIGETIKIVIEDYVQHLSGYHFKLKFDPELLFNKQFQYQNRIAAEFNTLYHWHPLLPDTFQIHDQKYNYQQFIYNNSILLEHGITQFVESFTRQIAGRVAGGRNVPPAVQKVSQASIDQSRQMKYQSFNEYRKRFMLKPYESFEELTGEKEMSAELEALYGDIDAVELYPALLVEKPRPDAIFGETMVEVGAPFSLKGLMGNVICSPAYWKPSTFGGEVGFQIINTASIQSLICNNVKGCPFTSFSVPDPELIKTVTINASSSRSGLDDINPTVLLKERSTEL
Nature of the series: Inhibition of COX2.

In series [13] the test system is Cerebral cortex neuron. The experiment in a line: Neuroprotective activity against glutamate-induced neuronal cell death in Sprague-Dawley rat primary cortical neuron at 2.5 uM pretreated for 24 hrs prior to glutamate challenge measured after 24 hrs by MTT assay. It counts as functional, cell-based.
Series [14] concerns Cerebral cortex neuron. Nature of the series: Neuroprotective activity against glutamate-induced neuronal cell death in Sprague-Dawley rat primary cortical neuron at 0.25 uM administered simultaneously with glutamate after 24 hrs by MTT assay. The series is classed as functional, cell-based.
The test system of series [15] is Cerebral cortex neuron. Nature of the series: Neuroprotective activity against glutamate-induced neuronal cell death in Sprague-Dawley rat primary cortical neuron at 0.25 uM pretreated for 24 hrs prior to glutamate challenge measured after 24 hrs by MTT assay. It counts as functional, cell-based.
For series [16], the system named is PC-12. The experiment in a line: Cytoprotective activity against 6-OHDA-induced cell death in rat PC12 cells at 50 uM pretreated for 24 hrs prior to 6-OHDA challenge measured after 24 hrs by MTT assay. It counts as functional, cell-based.
Series [17] relates to PC-12. Nature of the series: Cytoprotective activity against 6-OHDA-induced cell death in rat PC12 cells at 25 uM pretreated for 24 hrs prior to 6-OHDA challenge measured after 24 hrs by MTT assay. The series is classed as functional, cell-based.

Active and inactive are the calls of the source. No cut-off for these calls is given here.

Chain of Prostaglandin G/H synthase 1 (P23219 whole entry): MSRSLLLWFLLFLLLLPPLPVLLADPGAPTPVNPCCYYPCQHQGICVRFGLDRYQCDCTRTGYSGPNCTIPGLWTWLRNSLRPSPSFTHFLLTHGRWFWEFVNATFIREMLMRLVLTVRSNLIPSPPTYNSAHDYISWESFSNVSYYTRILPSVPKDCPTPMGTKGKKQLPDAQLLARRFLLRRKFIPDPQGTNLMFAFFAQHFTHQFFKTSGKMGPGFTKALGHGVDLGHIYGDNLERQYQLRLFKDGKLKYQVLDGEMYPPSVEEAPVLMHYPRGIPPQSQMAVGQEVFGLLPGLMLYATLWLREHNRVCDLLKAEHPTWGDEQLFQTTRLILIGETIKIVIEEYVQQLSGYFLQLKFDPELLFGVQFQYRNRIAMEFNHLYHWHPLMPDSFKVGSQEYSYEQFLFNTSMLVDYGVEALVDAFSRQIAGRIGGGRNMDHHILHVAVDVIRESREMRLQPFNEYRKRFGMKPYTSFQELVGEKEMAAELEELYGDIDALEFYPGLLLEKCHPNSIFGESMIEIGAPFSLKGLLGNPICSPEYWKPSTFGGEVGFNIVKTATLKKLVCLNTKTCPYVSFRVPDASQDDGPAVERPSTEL

A word on the IC50: it is the concentration at which inhibition is half-maximal. High values mean weaker potency in that assay, low ones greater potency in that assay. For `CCCCC/C=C/C(=O)CCc1ccc(O)c(OC)c1` [SHOGAOL], in series [1], the IC50 is 7.4 µM.

Take `CCCCCCc1ccc(-c2ccc(O)c(OC)c2)o1`: the Activity in series [2] is 1; in series [3], 1.3; in series [8], 0.62; in series [10], “Dose-dependent effect”. The outcome in the series on Cerebral cortex neuron [4], in the series on PC-12 [5], in the series with PC-12 [6], in the series with Cerebral cortex neuron [7] and with THP-1 was Active. Further, the values for the IC50 in series [9], in [1] and in series [12] were 62 µM, 2.6 µM and 8.4 µM, respectively. Also, the K in series [11] stood at 3 ×10⁴ /M/s.

As for `CCCCC[C@H](O)CC(=O)CCc1ccc(O)c(OC)c1` [GINGEROL], the IC50 in series [9] is 129 µM; in series [12], 125 µM.

For `Cc1c(C)c2c(c(C)c1O)CC[C@@](C)(CCC[C@H](C)CCC[C@H](C)CCCC(C)C)O2` [ALPHA-TOCOPHEROL], the result with Cerebral cortex neuron [13] was Active. The K in [11] worked out at 1 ×10⁶ /M/s.

On to `CC(C)=CCC/C(C)=C/CC/C(C)=C/CC[C@]1(C)CCc2c(C)c(O)c(C)c(C)c2O1`, for which the outcome with Cerebral cortex neuron [14] and in the series with Cerebral cortex neuron [15] was Active.

As to `CCc1ccc(-c2ccc(O)c(OC)c2)o1`, the Activity in series [2] is reported as 0.69; in series [3], 1.1; in series [8], 0.58; in [10] it was “Dose-dependent effect”. The result in the series on PC-12 [5], in the series with PC-12 [6], in the series with PC-12 [16], with PC-12 [17] and in the series on THP-1 was Active. Moreover, the IC50 came to 13 µM in series [9], 0.53 µM in series [1] and 9.4 µM in [12]. In addition, the K in series [11] was 2 ×10⁴ /M/s.
